Laboratory results: patent publication US6060043A, “Deodorant composition containing D-amino acid” (The Gillette Company, priority 1998, dated 2000)
≈ marks a conversion by molar mass, not a printed value.

What was measured:
axillary malodor [1] = test: Example 5: axillary malodor evaluation by odor judges, 1.0% D-cycloserine vs 0.3% triclosan; assay type: in vivo, human; design: key to Post-Application 24 Hour Drop from Control: drop in odor score vs control; scale 0 (no odor) to 10 (very intense); conditions: for Post-Application 24 Hour Drop from Control / Judges' Malodor Evaluation (score): 1.0% D-cycloserine, 0.3% triclosan; for Judges' Malodor Evaluation (score): scale 0 to 10
Protocol: (§1) BCA was dissolved in a mixture of 60% propylene glycol and 40% water at a final concentration of 1.0%. The pH of the solution was adjusted to about 6.25 with 10 N NaOH. Thirty-nine female panelists applied 0.5 ml of this test solution to either the right or left axilla and 0.5 ml of a comparative solution of 60% propylene glycol and 40% water to the other. The side of application of the test or comparative solutions was assigned in a random fashion. Twenty-four hours after application, each side of the panelists' axilla was judged for odor by a panel of trained odor judges on a scale of 0 (no odor) to 10 (very intense, disagreeable odor). This procedure was performed on four consecutive days. […] Analysis of the clinical results is summarized below:
A test product containing 1.0% D-cycloserine in 60% propylene glycol/40% water was compared to a product containing 0.3% triclosan in 60% propylene glycol/40% water by application to 60 test subjects according to the procedure of Example 4. […] All differences were highly significant.

Coryneform bacteria = test: Minimum inhibitory concentration (MIC) in axillary bacteria, Coryneform strain; assay type: cell-based, Coryneform strains of axillary bacteria; conditions: Coryneforms; overnight at 35° C.; lowest concentration without turbidity; read-out: MIC
Protocol: (§2) In vitro experiments were conducted in order to determine the ability of several bacterial cell wall synthesis inhibitors to inhibit the growth of axillary bacteria. The minimum inhibitory concentrations (MIC) of β-chloro-D-alanine (BCA), and D-cycloserine were determined in Staphylococcus (Staphylococcus haemolyticus) and Coryneform strains of axillary bacteria as follows: Frozen stock cultures were thawed out and 50 μl of Staphylococcus haemolyticus or 100 μl of Coryneform bacteria were inoculated into 5.0 ml of nutrient media. Bacteria were incubated at 35° C. overnight to produce cultures in log phase growth. A series of tubes was set up into which serial dilutions of BCA or triclosan in nutrient media were added in the range of 0.1 to 0.0001 wt/v % (where 1 g/100 ml=1 wt/v %). The tubes were inoculated with 50 μl of log phase Staphylococcus haemolyticus or Coryneform cultures and incubated at 35° C. overnight. […] The minimum bactericidal concentration (MBC) was determined by adding 50 μl from each clear solution of the MIC experiment into 5.0 ml of fresh nutrient media and incubating overnight at 37° C. […] The MIC of BCA was thus determined to be 0.1 wt/v % and 0.001 wt/v % in Staphylococcus haemolyticus and Coryneforms, respectively. The MIC of D-cycloserine was thus determined to be 0.01 wt/v % and 0.005 wt/v % in Staphylococcus haemolyticus and Coryneforms, respectively. By comparison, the MIC of the common antibacterial deodorant compound triclosan is 0.01 wt/v % and 0.1 wt/v % in Staphylococcus haemolyticus and Coryneforms, respectively.

[2] = test system: Staphylococcus haemolyticus; test: Minimum inhibitory concentration (MIC) in axillary bacteria, Staphylococcus strain; assay type: cell-based; conditions: overnight at 35° C., lowest concentration without turbidity, read-out: MIC
Protocol: as §2

[3] = Test of antimicrobial materials for deodorant activity; conditions: compared with currently available materials
From the text: Cosmetic Chemists, 19, 611-626 (1968) and Cowen, "Relative Merits of `In Use` and Laboratory Methods for the Evaluation of Antimicrobial Products, "J. Soc. Cosmetic Chemists, 25, 307-323 (1974).

[4] = biological target: T1, serine-palmitoyl transferase (Mus musculus, UniProt P97363); conditions: topical application; Holleran et al. 1991; cited from earlier work
T1 construct: host or cells: skin, in vivo after topical application
T1 sequence (P97363 1-560): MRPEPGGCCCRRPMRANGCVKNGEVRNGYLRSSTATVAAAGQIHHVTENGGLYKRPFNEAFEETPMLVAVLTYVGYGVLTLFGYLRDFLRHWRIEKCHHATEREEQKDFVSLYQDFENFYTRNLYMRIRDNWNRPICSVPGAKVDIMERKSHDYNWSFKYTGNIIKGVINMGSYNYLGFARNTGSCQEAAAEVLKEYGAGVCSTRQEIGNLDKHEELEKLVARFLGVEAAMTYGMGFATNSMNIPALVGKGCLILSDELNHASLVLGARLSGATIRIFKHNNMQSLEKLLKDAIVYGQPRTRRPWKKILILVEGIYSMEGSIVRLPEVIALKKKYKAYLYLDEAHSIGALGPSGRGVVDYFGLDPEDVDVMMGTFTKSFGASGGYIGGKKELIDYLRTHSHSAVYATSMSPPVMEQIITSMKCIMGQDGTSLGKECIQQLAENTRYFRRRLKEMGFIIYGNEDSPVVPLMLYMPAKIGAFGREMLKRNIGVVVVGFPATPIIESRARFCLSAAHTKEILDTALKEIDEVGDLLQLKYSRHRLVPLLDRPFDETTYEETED
T1 sequence (O35704 1-473 partner): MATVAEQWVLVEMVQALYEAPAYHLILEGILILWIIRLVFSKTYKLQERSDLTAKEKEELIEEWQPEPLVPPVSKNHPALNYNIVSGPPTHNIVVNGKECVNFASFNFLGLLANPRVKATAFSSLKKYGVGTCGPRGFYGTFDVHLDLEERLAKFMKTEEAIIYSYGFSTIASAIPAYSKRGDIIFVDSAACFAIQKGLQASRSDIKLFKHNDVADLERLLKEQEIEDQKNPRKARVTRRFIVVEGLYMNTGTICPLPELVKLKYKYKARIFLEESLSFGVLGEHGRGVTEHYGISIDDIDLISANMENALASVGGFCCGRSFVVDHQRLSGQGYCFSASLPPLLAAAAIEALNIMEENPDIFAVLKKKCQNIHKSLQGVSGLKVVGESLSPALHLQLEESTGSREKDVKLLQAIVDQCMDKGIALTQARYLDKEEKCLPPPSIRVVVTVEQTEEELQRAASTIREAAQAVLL

axillary malodor [5] = test: Example 6: axillary malodor evaluation by odor judges, 1.0% β-chloro-D-alanine vs 1.0% β-chloro-L-alanine; assay type: in vivo, human; design: key to 24 Hour Drop from Control / A-B (drop), D-BCA minus L-BCA: drop in odor score on 0 (no odor) to 10 (very intense) scale; conditions: 1.0% in 60% propylene glycol/40% water
Protocol: as §1
A test product containing 1.0% β-chloro-D-alanine (BCA)[…] in 60% propylene glycol/40% water was compared to a comparative product containing 1.0% β-chloro-L-alanine in 60% propylene glycol/40% water by application to 50 female test subjects according to the procedure of Example 4.

[6] = topical application; Holleran et al. 1991; cited from earlier work
β-lyase = test: Sniff vial test: malodor formation from precursors by whole Staphylococcus haemolyticus cells (beta-lyase inhibition); assay type: cell-based; conditions: whole Staphylococcus haemolyticus cells, sniff vial assay
Protocol: BCA was tested for its ability to prevent Staphylococcus haemolyticus from metabolizing sweat to form malodor. Log-phase cultures of Staphylococcus haemolyticus were incubated with various concentrations of BCA (31-0.625 mM) in phosphate buffer (pH 6.8) for 30 minutes at 35° C. The cell/BCA mixture was then added to a "sniff vial" containing malodor precursors and incubated at 35° C. for an additional 30 minutes. Malodor compounds were then extracted from the mixture with chloroform and malodor was judged by spotting 10 μl of chloroform extracts onto bibulous paper and smelling. […] In contrast, the β-lyase inhibitor aminooxyacetic acid (AOA) consistently prevents malodor in the above assay at concentrations of 5.0 mM.

Staphylococcus cells = conditions: as disclosed in U.S. Pat. No. 5,487,886; cited from earlier work

With Oc1cc(Cl)ccc1Oc1ccc(Cl)cc1Cl [triclosan, reference compound] the “Post-Application 24 Hour Drop from Control” value (“Post-Application 24 Hour Drop” below) (axillary malodor [1]; composite) was 0.65, the “Judges' Malodor Evaluation (score)” value (axillary malodor [1]; composite) was 4.07 and the “Post-Application 24 Hour Drop” value (axillary malodor [1]; measurement day 1) was 0.67. For the same compound, the “Judges' Malodor Evaluation (score)” value (axillary malodor [1]; measurement day 1) was 4, the “Post-Application 24 Hour Drop” value (axillary malodor [1]; measurement day 2) was 0.46 and the “Judges' Malodor Evaluation (score)” value (axillary malodor [1]; measurement day 2) was 4.26. The “Post-Application 24 Hour Drop” value (axillary malodor [1]; measurement day 3) was 0.74, the “Judges' Malodor Evaluation (score)” value (axillary malodor [1]; measurement day 3) was 3.97 and the “Post-Application 24 Hour Drop” value (axillary malodor [1]; measurement day 4) was 0.72. For the same compound, the “Judges' Malodor Evaluation (score)” value (axillary malodor [1]; measurement day 4) was 4, the MIC (Coryneform bacteria) was 1000 µg/mL (≈ 3450 µM) and the MIC [2] was 100 µg/mL (≈ 345 µM).
In the case of CC(=O)OCC(COC(C)=O)OC(C)=O [triacetin], the Deodorant activity [3] is reported as “no improvement over currently available materials was observed”.
For N[C@@H](CCl)C(=O)O [β-chloro-L-alanine, reference compound], the “Inhibition of serine-palmitoyl transferase in the skin” value [4] is given as “irreversibly inhibits”, the “24 Hour Drop from Control” value (axillary malodor [5]; composite) is given as 1.083 and the “24 Hour Drop from Control” value (axillary malodor [5]; post-application measurement 1) is given as 0.913. The “24 Hour Drop from Control” value (axillary malodor [5]; post-application measurement 2) was 1.040, the “24 Hour Drop from Control” value (axillary malodor [5]; post-application measurement 3) was 1.013 and the “24 Hour Drop from Control” value (axillary malodor [5]; post-application measurement 4) was 1.333. For the same compound, the “Recovery of skin barrier function in vivo” value [6] was “alters recovery of skin barrier function”.
For OO [hydrogen peroxide], the Deodorant activity [3] was “no improvement over currently available materials was observed”.
In the case of NOCC(=O)O [AOA, aminooxyacetic acid, reference compound], the “Concentration that consistently prevents malodor” value (β-lyase) is reported as 5.0 mM.
With CCCCCCCCCCCCCCCCCC[N+](C)(C)CCC[Si](OC)(OC)OC.[Cl-] [3-(trimethoxysilyl)propyloctadecyldimethyl ammonium chloride] the Deodorant activity [3] was “no improvement over currently available materials was observed”.
For NC1CONC1=O [D-cycloserine], the “Inhibition of axillary malodor, 1.0% D-cycloserine product versus 0.3% triclosan” value (axillary malodor [1]; all measurements and the composite, odor judges) was “superior to 0.3% triclosan”, the “Post-Application 24 Hour Drop” value (axillary malodor [1]; composite) was 1.13 and the “Judges' Malodor Evaluation (score)” value (axillary malodor [1]; composite) was 3.61. For the same compound, the “Post-Application 24 Hour Drop” value (axillary malodor [1]; measurement day 1) was 1.1, the “Judges' Malodor Evaluation (score)” value (axillary malodor [1]; measurement day 1) was 3.64 and the “Post-Application 24 Hour Drop” value (axillary malodor [1]; measurement day 2) was 0.99. For the same compound, the “Judges' Malodor Evaluation (score)” value (axillary malodor [1]; measurement day 2) was 3.75, the “Post-Application 24 Hour Drop” value (axillary malodor [1]; measurement day 3) was 1.22 and the “Judges' Malodor Evaluation (score)” value (axillary malodor [1]; measurement day 3) was 3.53. For the same compound, the “Post-Application 24 Hour Drop” value (axillary malodor [1]; measurement day 4) was 1.22, the “Judges' Malodor Evaluation (score)” value (axillary malodor [1]; measurement day 4) was 3.52 and the MIC (Coryneform bacteria) was 50 µg/mL (≈ 490 µM). It also gave an MIC [2] of 100 µg/mL (≈ 979 µM).
With [H]/N=C(\N/C(=N/[H])NCCCCCCNC(=N)NC(=N)Nc1ccc(Cl)cc1)Nc1ccc(Cl)cc1 [chlorhexidine] the Deodorant activity [3] was “no improvement over currently available materials was observed”.
In the case of NC1CONC1=O [L-cycloserine], the “Effect on the growth of Staphylococcus cells in culture” value (Staphylococcus cells) is given as “no inhibitory effect”.
